The species named for series [1] is Homo sapiens. In words: Selectivity ratio of IC50 for human HDAC8 to IC50 for human HDAC6.
A further series concerns PC-3. In words: Upregulation of acetyl-histone H3 in human PC-3 cells at 0.625 to 5 uM by Western blot analysis. The note with it: dose 0.625-5 µM. The class given is functional, cell-based. For orientation: Immunoblotting shows a protein as a band on a membrane.
Series [2] has as its target T1, Amine oxidase [flavin-containing] A (Homo sapiens, UniProt P21397).
T1 sequence (P21397 whole entry): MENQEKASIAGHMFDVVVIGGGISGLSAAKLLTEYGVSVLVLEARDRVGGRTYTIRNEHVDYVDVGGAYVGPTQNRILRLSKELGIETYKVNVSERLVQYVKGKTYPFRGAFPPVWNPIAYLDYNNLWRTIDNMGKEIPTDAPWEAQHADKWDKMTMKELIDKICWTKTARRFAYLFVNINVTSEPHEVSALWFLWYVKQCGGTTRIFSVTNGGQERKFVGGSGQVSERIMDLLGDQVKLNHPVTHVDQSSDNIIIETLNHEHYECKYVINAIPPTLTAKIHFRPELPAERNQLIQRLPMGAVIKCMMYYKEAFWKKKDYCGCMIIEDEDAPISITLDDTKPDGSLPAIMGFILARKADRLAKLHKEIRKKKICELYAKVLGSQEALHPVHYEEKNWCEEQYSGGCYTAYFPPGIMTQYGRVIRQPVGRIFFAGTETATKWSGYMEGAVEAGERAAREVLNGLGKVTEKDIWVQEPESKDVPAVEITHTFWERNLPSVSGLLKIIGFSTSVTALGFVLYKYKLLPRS
As to the kind of experiment: Inhibition of human full length recombinant MAO-A expressed in insect cells using kynuramine as substrate.

In the next series the target is Histone deacetylase 2 (Homo sapiens, UniProt Q92769). As to the kind of experiment: Inhibition of human HDAC2 (379 to 382 residues) using RHKKAc as flurogenic substrate.
Sequence of Histone deacetylase 2 (Q92769 whole entry, the tested form may be a part): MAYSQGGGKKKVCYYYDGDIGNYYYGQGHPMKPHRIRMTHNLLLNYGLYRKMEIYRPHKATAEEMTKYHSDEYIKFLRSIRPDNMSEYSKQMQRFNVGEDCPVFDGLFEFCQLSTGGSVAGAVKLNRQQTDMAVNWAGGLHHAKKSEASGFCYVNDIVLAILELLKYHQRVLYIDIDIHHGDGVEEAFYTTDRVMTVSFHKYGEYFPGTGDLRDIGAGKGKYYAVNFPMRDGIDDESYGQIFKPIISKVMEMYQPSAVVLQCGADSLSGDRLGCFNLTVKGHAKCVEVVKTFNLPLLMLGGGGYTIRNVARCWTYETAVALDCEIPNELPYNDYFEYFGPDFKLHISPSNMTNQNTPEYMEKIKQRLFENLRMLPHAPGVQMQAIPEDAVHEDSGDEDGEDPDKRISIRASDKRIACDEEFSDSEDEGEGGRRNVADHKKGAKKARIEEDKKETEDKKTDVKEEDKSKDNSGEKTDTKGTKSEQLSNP
For series [3], the species on record is Homo sapiens. In words: Selectivity ratio of IC50 for human HDAC7 to IC50 for human HDAC6.
A further series addresses Histone deacetylase 1 (Homo sapiens, UniProt Q13547). As to the kind of experiment: Inhibition of human HDAC1 (379 to 382 residues) using RHKKAc as flurogenic substrate.
Series [4] in a line: Tmax in Sprague-Dawley rat at 25 mg/kg, po formulated using SMEDDS administered once via gavage measured upto 24 hrs post dose by UPLC-MS/MS analysis. The class given is ADME, organism-based. The following applies: in vivo.
The nature of series [5]: Metabolic stability in human hepatocyte assessed as half life at 10 uM by LC-MS/MS analysis. The class given is ADME, cell-based. The following applies: hepatocytes.
Series [6] has as its system DU-145. In words: Upregulation of acetyl-histone H3 in human DU-145 cells at 0.625 to 5 uM by Western blot analysis. The note with it: dose 0.625-5 µM. The class given is functional, cell-based.
The target of the next series is Histone deacetylase 4 (Homo sapiens, UniProt P56524). As to the kind of experiment: Inhibition of human HDAC4 using Boc-Lys(trifluoroacetyl)-AMC as flurogenic substrate.
Sequence of Histone deacetylase 4 (P56524 whole entry): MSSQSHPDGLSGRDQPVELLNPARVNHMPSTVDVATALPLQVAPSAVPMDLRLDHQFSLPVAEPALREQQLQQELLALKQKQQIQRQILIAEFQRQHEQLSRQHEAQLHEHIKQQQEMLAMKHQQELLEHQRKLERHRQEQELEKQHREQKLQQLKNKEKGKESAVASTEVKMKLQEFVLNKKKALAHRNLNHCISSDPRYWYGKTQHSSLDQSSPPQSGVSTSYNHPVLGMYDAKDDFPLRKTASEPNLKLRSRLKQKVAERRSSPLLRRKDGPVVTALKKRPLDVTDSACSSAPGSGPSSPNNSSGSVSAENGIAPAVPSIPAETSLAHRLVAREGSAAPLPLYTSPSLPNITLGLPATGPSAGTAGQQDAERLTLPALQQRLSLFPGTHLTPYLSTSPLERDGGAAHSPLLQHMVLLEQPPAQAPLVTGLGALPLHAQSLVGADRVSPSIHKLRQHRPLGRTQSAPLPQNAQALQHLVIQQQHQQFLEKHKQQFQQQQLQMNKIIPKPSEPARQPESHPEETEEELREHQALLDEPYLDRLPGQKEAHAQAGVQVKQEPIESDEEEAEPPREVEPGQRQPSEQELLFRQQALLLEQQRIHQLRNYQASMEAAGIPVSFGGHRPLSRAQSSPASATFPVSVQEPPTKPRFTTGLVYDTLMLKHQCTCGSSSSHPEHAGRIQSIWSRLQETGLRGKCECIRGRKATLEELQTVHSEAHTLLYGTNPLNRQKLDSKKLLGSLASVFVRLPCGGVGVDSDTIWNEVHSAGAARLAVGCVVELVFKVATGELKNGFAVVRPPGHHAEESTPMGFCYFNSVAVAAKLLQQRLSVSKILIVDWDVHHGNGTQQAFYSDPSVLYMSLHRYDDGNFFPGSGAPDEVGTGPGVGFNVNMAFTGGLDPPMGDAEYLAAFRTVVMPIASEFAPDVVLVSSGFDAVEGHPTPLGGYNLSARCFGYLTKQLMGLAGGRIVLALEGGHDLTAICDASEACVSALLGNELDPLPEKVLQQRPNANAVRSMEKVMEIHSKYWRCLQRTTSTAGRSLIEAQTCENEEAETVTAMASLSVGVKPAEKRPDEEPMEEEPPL
The target in series [7] is T2, Protein deacetylase HDAC6 (Homo sapiens, UniProt Q9UBN7).
T2 sequence (Q9UBN7 whole entry): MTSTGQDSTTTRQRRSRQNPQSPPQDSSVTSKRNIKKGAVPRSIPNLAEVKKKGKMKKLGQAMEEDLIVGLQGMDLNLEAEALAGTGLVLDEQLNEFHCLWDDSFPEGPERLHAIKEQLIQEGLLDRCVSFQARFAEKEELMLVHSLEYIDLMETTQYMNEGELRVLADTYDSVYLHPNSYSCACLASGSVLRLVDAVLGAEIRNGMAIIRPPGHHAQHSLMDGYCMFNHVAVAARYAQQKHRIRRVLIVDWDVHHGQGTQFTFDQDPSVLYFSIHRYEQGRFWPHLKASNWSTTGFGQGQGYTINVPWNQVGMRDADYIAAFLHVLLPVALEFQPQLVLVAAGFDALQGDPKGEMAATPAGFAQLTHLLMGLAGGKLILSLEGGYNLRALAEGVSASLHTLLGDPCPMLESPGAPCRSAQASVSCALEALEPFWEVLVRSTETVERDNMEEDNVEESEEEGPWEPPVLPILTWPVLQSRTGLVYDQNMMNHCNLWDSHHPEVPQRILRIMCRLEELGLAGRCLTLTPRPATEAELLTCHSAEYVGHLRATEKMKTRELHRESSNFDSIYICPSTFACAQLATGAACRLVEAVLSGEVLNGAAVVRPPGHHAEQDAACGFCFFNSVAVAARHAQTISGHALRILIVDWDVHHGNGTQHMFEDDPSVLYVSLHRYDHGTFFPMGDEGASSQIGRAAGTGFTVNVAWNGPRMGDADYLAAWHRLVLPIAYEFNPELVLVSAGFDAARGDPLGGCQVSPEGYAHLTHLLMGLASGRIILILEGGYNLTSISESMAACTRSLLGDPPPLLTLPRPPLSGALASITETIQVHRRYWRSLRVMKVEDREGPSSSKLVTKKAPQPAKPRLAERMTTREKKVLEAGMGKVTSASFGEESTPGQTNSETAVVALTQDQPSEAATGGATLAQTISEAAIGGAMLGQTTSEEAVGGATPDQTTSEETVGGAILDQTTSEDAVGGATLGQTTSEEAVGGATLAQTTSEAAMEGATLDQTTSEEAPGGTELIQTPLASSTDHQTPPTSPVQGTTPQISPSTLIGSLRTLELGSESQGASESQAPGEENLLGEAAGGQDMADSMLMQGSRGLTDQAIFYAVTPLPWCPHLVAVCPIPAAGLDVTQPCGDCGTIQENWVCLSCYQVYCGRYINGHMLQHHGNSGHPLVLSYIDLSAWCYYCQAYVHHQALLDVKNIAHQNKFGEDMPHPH
In words: Inhibition of human HDAC6 (379 to 382 residues) using RHKKAc as flurogenic substrate.

The species named for series [8] is Homo sapiens. In words: Selectivity ratio of IC50 for […] IC50 for human full length recombinant MAO-B.
A short description of series [9]: AUC (0 to infinity) in Sprague-Dawley rat at 25 mg/kg, po administered once via gavage measured upto 24 hrs post dose by UPLC-MS/MS analysis. The class given is ADME, organism-based. Set-up: time < 24 hrs, dose 25 mg/kg, route po. The following applies: in vivo.
For series [10], the system named is DU-145. In words: Antiproliferative activity against human DU-145 cells assessed as cell growth inhibition incubated for 48 hrs by MTT assay. It counts as functional. Background: Formazan colour is commonly taken as a measure of viable cells.
The nature of series [11]: AUC (0 to infinity) in Sprague-Dawley rat at 25 mg/kg, po formulated using SMEDDS administered once via gavage measured upto 24 hrs post dose by UPLC-MS/MS analysis. The class given is ADME, organism-based. Set-up: dose 25 mg/kg, time < 24 hrs, route po. The note with it: in vivo.
For another series, the target named is Histone deacetylase 3 (Homo sapiens, UniProt O15379). As to the kind of experiment: Inhibition of human HDAC3 (379 to 382 residues) using RHKKAc as flurogenic substrate.
Sequence of Histone deacetylase 3 (O15379 whole entry, the tested form may be a part): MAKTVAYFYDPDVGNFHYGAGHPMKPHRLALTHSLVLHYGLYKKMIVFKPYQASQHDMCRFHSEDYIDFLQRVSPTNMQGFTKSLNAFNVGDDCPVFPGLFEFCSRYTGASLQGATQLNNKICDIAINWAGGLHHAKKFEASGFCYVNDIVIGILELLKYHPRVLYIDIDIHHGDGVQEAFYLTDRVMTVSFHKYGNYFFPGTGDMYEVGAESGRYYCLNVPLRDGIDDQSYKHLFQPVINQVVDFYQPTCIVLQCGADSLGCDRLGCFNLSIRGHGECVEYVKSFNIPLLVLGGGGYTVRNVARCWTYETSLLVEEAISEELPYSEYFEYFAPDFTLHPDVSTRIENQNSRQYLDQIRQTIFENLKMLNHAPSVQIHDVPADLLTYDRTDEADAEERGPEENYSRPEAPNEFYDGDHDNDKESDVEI
Series [12] is described as follows: Cmax in Sprague-Dawley rat at 25 mg/kg, po administered once via gavage measured upto 24 hrs post dose by UPLC-MS/MS analysis. The class given is ADME, organism-based. Details: dose 25 mg/kg, time < 24 hrs, route po. The note with it: in vivo.
A short description of series [13]: Metabolic stability in human hepatocyte assessed as parent compound remaining at 10 uM incubated for 60 mins by LC-MS/MS analysis. It counts as ADME, cell-based. The following applies: hepatocytes, read-out: Stability.
Series [14] can be described thus: Oral bioavailability in Sprague-Dawley rat at 25 mg/kg formulated using SMEDDS administered once via gavage measured upto 24 hrs post dose by UPLC-MS/MS analysis. The class given is ADME, organism-based. The following applies: in vivo.
Series [15] can be described thus: Half life in Sprague-Dawley rat at 2 mg/kg, iv administered as single dose through tail vein measured upto 24 hrs post dose by UPLC-MS/MS analysis. The class given is ADME, organism-based. The note with it: in vivo.

The source made the active and inactive calls.

Sequence of Histone deacetylase 1 (Q13547 whole entry, the tested form may be a part): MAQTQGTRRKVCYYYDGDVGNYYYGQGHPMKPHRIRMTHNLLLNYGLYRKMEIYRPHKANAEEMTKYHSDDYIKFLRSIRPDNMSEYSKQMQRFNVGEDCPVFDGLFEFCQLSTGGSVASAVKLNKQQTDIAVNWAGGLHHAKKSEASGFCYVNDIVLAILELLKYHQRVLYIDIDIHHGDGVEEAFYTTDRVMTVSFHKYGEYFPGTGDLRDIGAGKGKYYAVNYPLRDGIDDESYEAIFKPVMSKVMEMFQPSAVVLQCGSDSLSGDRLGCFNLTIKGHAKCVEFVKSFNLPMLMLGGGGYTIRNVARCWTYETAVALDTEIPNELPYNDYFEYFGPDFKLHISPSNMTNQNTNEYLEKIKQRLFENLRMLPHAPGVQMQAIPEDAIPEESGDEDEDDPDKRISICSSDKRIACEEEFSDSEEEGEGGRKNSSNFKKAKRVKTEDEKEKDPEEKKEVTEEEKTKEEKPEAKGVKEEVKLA

As to `C#CCN(C)Cc1cccc(NC(=O)CCCCCCC(=O)NO)c1`, the results for the Ratio IC50 in the series filed under Homo sapiens [1], in the series listed under Homo sapiens [3] and in the series filed under Homo sapiens [8] were 10.5, more than 500 and 84, respectively. Also, the result in the series on PC-3 and with DU-145 [6] was Active. Also, the IC50 (as a rule, the concentration that inhibits the measured activity by half) in series [2] was 790 nM; against Histone deacetylase 2 it was 1540 nM; against Histone deacetylase 1, 673 nM; at Histone deacetylase 4 it was more than 10000 nM; in series [7], 20 nM; against Histone deacetylase 3, 133 nM. Also, the Tmax (as a rule, the time at which the peak concentration occurs) in series [4] stood at 0.9 h. Also, the half-life (as a rule, the time needed for the level to fall by half in the phase considered) at 10 µM in series [5] is 13.3 h. The figures for the AUC(0-inf) in series [9] and in series [11] were 113 ng·h/mL and 596 ng·h/mL, respectively. Moreover, the GI50 – broadly, the concentration that inhibits growth by half – in the series with DU-145 [10] came to 420 nM. Further, the Cmax (commonly the highest concentration seen after dosing) in series [12] is 74.1 ng/mL. In addition, the remaining at 1 h, 10 µM in series [13] is 102%. Moreover, the bioavailability (usually the share of a dose that reaches the circulation, judged against a reference dose that is usually intravenous) in series [14] is 62.1%. Besides, the half-life in series [15] was 8.1 h.

(Values after ChEMBL document CHEMBL5096208, “Installation of Pargyline, a LSD1 Inhibitor, in the HDAC Inhibitory Template Culminated in the Identification of a Tractable Antiprostate Cancer Agent” (J Med Chem, 2021).)
